In PMC4071596, “Eurothiocin A and B, Sulfur-Containing Benzofurans from a Soft Coral-Derived Fungus Eurotium rubrum SH-823” (Marine Drugs, 2014):

Key:
α-glucosidase = α-glucosidase (Saccharomyces cerevisiae, UniProt P53341); assay: α-Glucosidase inhibitory activity assay (p-nitrophenyl-α-glucopyranoside hydrolysis, absorbance at 400 nm); type: biochemical; details: for type of inhibition of α-glucosidase (Lineweaver-Burk plot method): kinetic studies at increasing concentration of substrates and inhibitors
Chain of α-glucosidase (P53341 whole entry): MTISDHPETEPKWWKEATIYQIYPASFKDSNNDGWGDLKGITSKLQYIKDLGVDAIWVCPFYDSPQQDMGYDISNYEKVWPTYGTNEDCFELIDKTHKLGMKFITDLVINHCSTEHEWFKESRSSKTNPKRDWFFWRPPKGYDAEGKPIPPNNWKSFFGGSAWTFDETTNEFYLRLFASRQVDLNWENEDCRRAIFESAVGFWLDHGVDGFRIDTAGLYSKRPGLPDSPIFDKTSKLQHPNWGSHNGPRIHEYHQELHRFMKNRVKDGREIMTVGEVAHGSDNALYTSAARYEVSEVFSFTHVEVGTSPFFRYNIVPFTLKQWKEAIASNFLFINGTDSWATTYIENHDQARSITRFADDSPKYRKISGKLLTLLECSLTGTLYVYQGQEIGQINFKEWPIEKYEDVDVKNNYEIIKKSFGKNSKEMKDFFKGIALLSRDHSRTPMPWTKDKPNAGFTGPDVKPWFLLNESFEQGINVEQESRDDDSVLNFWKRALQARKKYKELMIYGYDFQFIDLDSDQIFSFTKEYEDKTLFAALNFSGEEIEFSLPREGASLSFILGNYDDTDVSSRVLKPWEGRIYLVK
Protocol: α-Glucosidase was assayed according to standard procedures by following the hydrolysis of nitrophenyl glycosides by monitoring formation of p-nitrophenol spectrometrically at 400 nm. The reaction mixture (final volume, 1 mL) consisted of the enzyme solution (20 μL, Sigma 9001-42-7, E.C 3.2.1.20), substrate (10 mM p-nitrophenyl-α-glucopyranoside, 20 μL, Fluka, BioChemika, Buchs, Switzerland) in 50 mM potassium phosphate buffer (pH 7.0) and test sample dissolved in DMSO (20 μL). The inhibitors were pre-incubated with the enzyme at 37 °C for 30 min, and the substrate was then added. The reaction was monitored spectrophotometrically by measuring the absorbance at 400 nm. […] The inhibitory activity of test compound was determined as a percentage in comparison to a blank according with the following equation: The inhibition rates (%) = [(ODcontrol − ODcontrol blank) − (ODtest − ODtest blank)]/(ODcontrol − ODcontrol blank) × 100%. The IC50 values of compounds were calculated by the nonlinear regression analysis and expressed as the mean ± SD of two distinct experiments. Kinetic parameters were determined using the Lineweaver-Burk double-reciprocal plot method at increasing concentration of substrates and inhibitors.

Compound: butyrolactone I [Compound 4]
- IC50 (α-glucosidase; mean ± SD from two independent experiments, pre-incubated with the enzyme at 37 °C for 30 min, pH 7.0): 98.5 ± 3.3 µM

Compound: CSC(=O)c1c(C)cc2c(c1O)CC(C(C)(O)CO)O2 (stereo not shown) [Compound 2, eurothiocin B]
- type of inhibition of α-glucosidase (Lineweaver-Burk plot method) (α-glucosidase): competitive inhibitors
- melting point: 122 to 123 °C

Compound: CSC(=O)c1c(C)cc2c(c1O)CC(C(C)(C)O)O2 (stereo not shown) [Compound 1, eurothiocin A]
- type of inhibition of α-glucosidase (Lineweaver-Burk plot method) (α-glucosidase): competitive inhibitors
